Consider 6 compounds from paper PMC6155315, “Enantiomeric Aβ peptides inhibit the fluid shear stress response of PIEZO1” (Scientific Reports, 2018).

As usually defined, the Hill coefficient is the slope factor of the fitted curve.

The test system of one assay is PIEZO1 channels. Format: cell-based, human. The following applies: 5 µM perfused, 50 mV, 60 mmHg pulses; 3 independent experiments.
The next assay concerns the target T1, hPIEZO1 (Homo sapiens, UniProt Q92508).
T1 construct: expressed in transfected cells
In words: Fluid shear stress assay: shear-induced [Ca2+]i increase (Fluo-4 AM) in hP1-CL cells. In kind it is cell-based. Particulars: for Effect on fluid shear [Ca2+]i response: hP1-CL cells; for Shear response of hP1-CL cells after cytoskeletal disruption: concentration not given. How it is done: We first created a cell line that expressed a fluorescently tagged version of human PIEZO1 called hPIEZO1-1591-EGFP[5]. […] The cDNA was integrated into the genome of HEK293T cells using a lentivirus vector.
The microfluidic chambers had glass coverslip bottoms coated with human fibronectin (Invitrogen)[20] and fluid flow guided by PDMS channels. Cells were cultured in the chamber for 3 days, with daily medium changes. On the experimental day, chambers were rinsed with isotonic solution (75 mM NaCl, 5 mM KCl, 2 mM MgCl2, 1 mM CaCl2 and 10 mM HEPES, adjusted to 320 mOsm with mannitol). A stock of Fluo-4 AM was diluted to 5 µM in isotonic saline and incubated with cells for 10–30 min at 37C°. Chambers were then rinsed twice with isotonic solution and incubated for 8 minutes to complete Fluo-4 AM de-esterification. A single fluid shear stress pulse of ~15 dynes/cm^2 for 8–10 ms was applied to the chamber using a high-speed pressure servo (HSPC-1 from ALA). Peptide stocks were kept at 4 °C until used, dissolved to desired concentrations, and immediately added to cells.
Images of the cellular response to shear stress were captured by an EM-CCD camera (C9100 model, Hamamatsu) at a nominal rate of 1 Hz. To quantify the response, the average intensity in the field of view was background subtracted. Image intensity was adjusted for the rate of bleaching. Each condition was repeated in four separate chambers, and the results averaged. The responses were normalized to the control experiments, and the inhibition was calculated as previously described. The data points were fit by a Hill plot with the equation:1 y=Vmax⁎x^n/(k^n+x^n) where Vmax is the maximum response, n is the Hill coefficient, and k is related to the concentration at half-maximal response.

For another assay, the system named is hP1-mCherry-CL cells. The assay is described as follows: Actin stress, cpst-FRET actin force probe, in PIEZO1-overexpressing cells. In kind it is cell-based, human. The following applies: for Effect on actin stress: 37 °C, 15 cells from 3 experiments. The source says: Cell movement in the presence of PIEZO1 channels appears to rely on cytoskeletal integrity and plasticity, consistent with the ability of cytoskeletal disrupting agents to prevent PIEZO1 activation (Supplementary Fig. 4A). We examined forces within the cytoskeleton during channel inhibition. By transient transfection, we introduced a genetically encoded optical probe of actin stress (cpst-FRET) into stable hP1-mCherry-CL cells[19] (Fig. 4A), resulting in probe expression into F-actin. […] For each experiments described below, we analyzed and averaged (with SD) 15 cells from 3 different experiments. […] 10 pM of monomerized scrambled Aβ peptide (black squares) also had no effect on actin stress.
Figure 4 D-GsMTx4 and the enantiomeric Aβ(1-40) peptides inhibit Ca^2+ entry, and increase cytoskeleton stress in hP1-mCherry-CL cells. hP1-mCherry-CL cells were transiently transfected with cDNA encoding the actin force probe to monitor peptide-induced changes to the cell’s cytoskeleton. […] Each data point is the average of 15 cells from 3 different experiments (with SD). A baseline response is established in the first 30 minutes (37 °C and 5% CO2). Addition (green bar) of D-GsMTx4 (5 uM, black squares) or monomeric enantiomeric Aβ(1-40) peptides (10 pM; L, red circles; D, blue triangles) elicits immediate increases in actin stress. […] Bath removal of extracellular Ca^2+ elicits the largest effect (40%, blue triangles). Data points are 15 cells from 3 independent experiments with SD. Panel D summarizes Aβ responses at the 60 min time point (paired t-test). […] Before and after intensities were analyzed by paired t-test ([…]). […]
(§1) To measure cytoskeletal stress, hP1-mCherry-CL cells were transiently transfected with cDNA encoding the cpst-actin FRET probe. The FRET ratio of […] was measured by simultaneous imaging using an image splitter. Baseline actin stress was measured at 37 °C in isotonic solution for 30 min before peptide addition (see above).

A further assay concerns HEK293T cells. The assay is described as follows: Actin stress, actin force probe, in unmodified control cells. Format: cell-based. How it is done: (Panel A) HEK293T cells were monitored for 30 min to establish a baseline.
as §1

A further assay has as its system hP1-CL cells. The assay is described as follows: Cell migration (wound healing) assay with peel-off PDMS barrier. Format: cell-based, human. Particulars: 5 µM. How it is done: PIEZO1 channels are involved in neurite extension[16] and other types of cell motility. This led us to test the effects of Aβ peptides on hP1-CL motility in a wound healing assay. Cells were grown to confluence on glass coverslips half-coated with PDMS (Polydimethylsiloxane). The PDMS layer was then peeled off allowing us to accurately measure the collective cell migration rates across the newly exposed glass surface.
Figure 3 Aβ peptides inhibit migration of hP1-CL cells. Cell migration was measured as cell movement on glass cover slips in polystyrene dishes at 37 °C and 5% CO2. A PDMS barrier to cell growth was created on the cover slip. When cells reached confluency, the barrier was peeled off. Images of the resulting, initially sharp confluent cell boundary were captured at 0.003 Hz over 5 hours. […] Bottom left panel summarizes the mean cell migration distances as a function of time. […] Three independent experiments were averaged (SEM).
Half of a glass coverslip was coated with catalyzed PDMS (polydimethylsiloxane) (9:1) and allowed to harden. Cells were cultured on the complete coverslip kept in tissue culture dishes. After achieving confluency, the PDMS was peeled from the glass. The location of the front edge of the confluent cells was monitored for 5 hr at 37 C° with 5% CO2-supplemented DMEM media containing 10% bovine serum. […]

Where “and” joins values, the source holds several entries; their conditions need not be identical. Identical values can stand only once. Positions of bridges follow the written chain, without caps; N, C: chain ends. Residues, ends and D or L forms follow the SMILES beside them.

T1 sequence (Q92508 whole entry): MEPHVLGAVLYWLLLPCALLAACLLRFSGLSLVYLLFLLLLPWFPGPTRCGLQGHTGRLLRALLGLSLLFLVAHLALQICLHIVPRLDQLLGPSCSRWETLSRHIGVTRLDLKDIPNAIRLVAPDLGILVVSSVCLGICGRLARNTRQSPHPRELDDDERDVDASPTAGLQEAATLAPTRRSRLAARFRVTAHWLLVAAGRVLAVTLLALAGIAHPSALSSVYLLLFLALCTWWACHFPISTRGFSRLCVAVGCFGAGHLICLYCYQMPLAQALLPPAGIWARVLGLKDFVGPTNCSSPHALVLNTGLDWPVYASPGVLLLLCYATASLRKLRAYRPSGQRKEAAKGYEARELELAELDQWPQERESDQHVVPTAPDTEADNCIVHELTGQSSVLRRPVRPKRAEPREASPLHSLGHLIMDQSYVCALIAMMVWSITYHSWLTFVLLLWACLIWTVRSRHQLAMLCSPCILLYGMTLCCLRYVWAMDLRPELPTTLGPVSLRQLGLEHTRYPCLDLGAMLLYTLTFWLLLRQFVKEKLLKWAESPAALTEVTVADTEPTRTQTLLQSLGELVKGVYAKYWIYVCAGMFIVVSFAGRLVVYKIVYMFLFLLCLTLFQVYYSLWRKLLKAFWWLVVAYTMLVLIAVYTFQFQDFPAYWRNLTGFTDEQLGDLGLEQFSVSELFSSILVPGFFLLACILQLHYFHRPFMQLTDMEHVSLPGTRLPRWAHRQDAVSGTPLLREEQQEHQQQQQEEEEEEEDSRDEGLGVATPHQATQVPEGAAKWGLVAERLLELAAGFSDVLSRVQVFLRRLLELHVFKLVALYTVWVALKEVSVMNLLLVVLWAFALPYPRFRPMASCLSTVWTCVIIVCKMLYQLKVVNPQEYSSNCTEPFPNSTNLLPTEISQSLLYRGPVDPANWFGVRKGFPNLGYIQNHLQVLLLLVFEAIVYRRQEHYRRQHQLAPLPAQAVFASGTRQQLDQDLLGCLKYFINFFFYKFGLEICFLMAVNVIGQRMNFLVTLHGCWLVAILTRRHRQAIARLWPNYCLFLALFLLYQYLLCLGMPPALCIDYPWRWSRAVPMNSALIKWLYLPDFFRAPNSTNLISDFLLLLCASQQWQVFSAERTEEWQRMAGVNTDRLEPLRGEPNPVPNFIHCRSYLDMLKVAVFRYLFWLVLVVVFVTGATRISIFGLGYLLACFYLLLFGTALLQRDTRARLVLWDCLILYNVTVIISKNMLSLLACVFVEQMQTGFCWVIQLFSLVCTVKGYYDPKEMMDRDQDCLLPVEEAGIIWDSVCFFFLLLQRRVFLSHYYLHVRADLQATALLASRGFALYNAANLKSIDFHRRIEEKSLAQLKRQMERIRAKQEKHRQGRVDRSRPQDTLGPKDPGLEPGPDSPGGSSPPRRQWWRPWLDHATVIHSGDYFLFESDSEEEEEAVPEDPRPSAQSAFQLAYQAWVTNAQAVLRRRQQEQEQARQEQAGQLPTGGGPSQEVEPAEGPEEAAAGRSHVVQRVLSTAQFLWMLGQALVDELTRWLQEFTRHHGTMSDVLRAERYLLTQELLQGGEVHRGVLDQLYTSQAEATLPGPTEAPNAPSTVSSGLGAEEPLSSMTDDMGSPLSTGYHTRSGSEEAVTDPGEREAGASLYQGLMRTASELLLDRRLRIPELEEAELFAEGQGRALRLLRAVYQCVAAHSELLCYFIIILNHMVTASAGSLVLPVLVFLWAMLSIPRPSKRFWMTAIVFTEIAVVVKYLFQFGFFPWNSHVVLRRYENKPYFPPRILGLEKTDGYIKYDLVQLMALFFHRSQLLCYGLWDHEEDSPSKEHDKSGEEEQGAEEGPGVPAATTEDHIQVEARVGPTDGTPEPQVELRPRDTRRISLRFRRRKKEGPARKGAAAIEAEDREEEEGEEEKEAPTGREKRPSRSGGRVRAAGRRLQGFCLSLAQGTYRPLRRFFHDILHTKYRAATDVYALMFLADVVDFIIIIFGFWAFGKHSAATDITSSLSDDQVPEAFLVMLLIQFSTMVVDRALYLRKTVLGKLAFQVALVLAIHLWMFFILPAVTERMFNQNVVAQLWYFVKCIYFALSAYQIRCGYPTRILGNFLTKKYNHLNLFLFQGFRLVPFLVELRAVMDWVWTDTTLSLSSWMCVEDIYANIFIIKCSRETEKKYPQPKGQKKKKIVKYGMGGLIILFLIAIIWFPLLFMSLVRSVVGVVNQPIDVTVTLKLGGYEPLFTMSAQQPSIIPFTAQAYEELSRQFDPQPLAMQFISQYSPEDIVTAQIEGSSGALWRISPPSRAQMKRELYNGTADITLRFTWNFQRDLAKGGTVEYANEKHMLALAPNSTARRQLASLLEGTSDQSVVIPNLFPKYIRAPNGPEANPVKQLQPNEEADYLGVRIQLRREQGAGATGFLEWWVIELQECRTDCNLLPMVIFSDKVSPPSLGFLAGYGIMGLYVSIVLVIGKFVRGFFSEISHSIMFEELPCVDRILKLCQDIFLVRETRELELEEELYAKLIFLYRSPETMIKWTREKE
Experimental for PIEZO1 channels: We examined whether the Aβ could inhibit PIEZO1 currents in the patch. We formed outside/out patches from the hP1 cell line and tested whether 10 µM of Aβ (1-40) or Aβ (1-42) (Peptide Method I) inhibited channel activity, a concentration that blocked the shear response.
Cell-attached and outside-out patches were used as previously described[47]. All experiments were at room temperature. Pressure or suction steps were applied to the membranes using a high speed pressure clamp (ALA)[48]. The bath solution contained (in mM): 150 KCl, 10 HEPES, 1 MgCl2, 1 CaCl2 at pH 7.4 that clamped the resting membrane potential to zero. The pipette solution was 150 mM KCl at pH 7.4.
Shown above are typical results from single patches. Left- a positive pressure pulse of 60 mmHg at 50 mV lasting 500 msec was applied to an O/O patch every 2 seconds. After 12 pulses (24 seconds, black trace is the average of 12 pulses), 10 µM of L Aβ(1-40) was applied by perfusion and activity was monitored for 30 seconds (red trace is the average of 15 pulses). […] Center- The effect of Aβ(1-42) on a different patch (identical conditions described above). 12 pressure pulses (black trace) established a baseline response. […] 6 pressure pulses (50 mV, 60 mmHg) were applied to establish the baseline response (black). […]

As to `CC(C)C[C@@H]1NC(=O)[C@@H](NC(=O)CN)CSSC[C@@H]2NC(=O)[C@@H]3CSSC[C@@H](C(=O)N[C@@H](CC(N)=O)C(=O)N[C@@H](Cc4ccccc4)C(=O)N[C@@H](CO)C(=O)N[C@@H](Cc4ccccc4)C(N)=O)NC(=O)[C@H](CC(C)C)NC(=O)[C@H](CCCCN)NC(=O)[C@H](Cc4ccccc4)NC(=O)[C@H](CC(C)C)NC(=O)[C@H](CCCCN)NC(=O)[C@H](CO)NC(=O)[C@H](CSSC[C@H](NC(=O)[C@H](CCCCN)NC(=O)[C@H](Cc4c[nH]c5ccccc45)NC(=O)[C@H](Cc4c[nH]c5ccccc45)NC(=O)[C@H](Cc4ccccc4)NC(=O)[C@H](CCC(=O)O)NC1=O)C(=O)N[C@@H](CC(N)=O)C(=O)N1CCC[C@H]1C(=O)N[C@@H](CC(N)=O)C(=O)N[C@@H](CC(=O)O)C(=O)N[C@@H](CC(=O)O)C(=O)N[C@@H](CCCCN)C(=O)N3)NC(=O)[C@H](CCCCN)NC(=O)[C@H](CC(C)C)NC(=O)[C@H](CCCCN)NC(=O)[C@@H]1CCCN1C(=O)[C@H](CCCNC(=N)N)NC2=O` [GsMTx4] (H-GCLEFWWKCNPNDDKCCRPKLKCSKLFKLCNFSF-NH2; disulfide 2-17, 9-23, 16-30; N-terminus and C-terminus assumed), the “Inhibition of PIEZO1 outside/out patch current” value with PIEZO1 channels stood at 0.67 ± 0.07. At hPIEZO1 (5 µM, Supplementary Fig. 3A), the “Effect on fluid shear [Ca2+]i response” value is recorded as “inhibited the shear stress response”. In addition, the “Reversibility of channel inhibition on washout” value on hPIEZO1 (shear stress assay, Aβ: within 20 min or with shear stress raised to 25 dynes/cm2) is recorded as “readily restored”. Moreover, on hPIEZO1 (titration of shear stress response of hP1-CL cells), the “Hill coefficient” value is 1.9 and ~ 1.9.
In the case of `COc1cc2c(c(OC)c1OC)-c1ccc(OC)c(=O)cc1[C@@H](NC(C)=O)CC2` [colchicine], the “Shear response of hP1-CL cells after cytoskeletal disruption” value at hPIEZO1 (Supplementary Fig. 3A) is listed as “unresponsive to fluid shear”.
Still for that read-out and setting: the entry for `C=C1[C@@H](C)[C@H]2[C@H](Cc3ccccc3)NC(=O)[C@]23[C@H](OC(C)=O)/C=C/[C@@](C)(O)C(=O)[C@@H](C)C/C=C/[C@H]3[C@@H]1O` [cytochalasin D] is “unresponsive to fluid shear”.
With “AEGDSHVLKEGAYMEIFDVQGHVFGGKIFRVVDLGSHNVA [scrambled L-Aβ(1-40), scrambled Aβ(1-40) peptide purchased from Anaspec, used as control]”, the “Effect on actin stress” value in the assay with hP1-mCherry-CL cells (10 pM monomeric peptide added after 30 min baseline) is recorded as “no effect”. For the same compound, the “Effect on fluid shear [Ca2+]i response” value at hPIEZO1 (10 µM peptide, 4 independent experiments) was “lack of PIEZO1 inhibition”. In addition, in the assay on HEK293T cells (concentration not given, after 30 min baseline), the “Effect on actin stress probe FRET in HEK293T cells” value was “no change”.
On to D-GsMTx4, for which, in the assay on hP1-mCherry-CL cells (5 µM added after 30 min baseline), the “Effect on actin stress” value is “increase in actin stress”. Further, in the assay with hP1-mCherry-CL cells (actin force probe images, Fig. 4E,F, 20 lamellipodia from 4 cells), the “Effect on F-actin in lamellipodia” value was “drop of F-actin tension and its retraction from the lamellipodia”. For the same compound, on hPIEZO1 (5 µM, Supplementary Fig. 3A), the “Effect on fluid shear [Ca2+]i response” value is recorded as “complete inhibition”. In addition, the “Effect on actin stress in HEK293T cells” value in the assay on HEK293T cells (5 µM, 15 cells from 3 experiments) is “no effect”. Also, the “Effect on hP1-CL cell migration” value with hP1-CL cells was “blocked”. Moreover, the “Slowing of cell migration” value in the assay on hP1-CL cells (hP1-CL cells, 5 hr, 37 °C, 3 independent experiments) was “over 10 fold”.
“HiLyte Aβ(1-42): L-Aβ(1-42) fluorescently labeled at the N-terminus with HiLyte (555), purchased (Anaspec) and monomerized”: the “Effect on shear stress response of the hPIEZO1 cell line” value with hPIEZO1 (5 pM and 100 pM monomerized peptide, 4 independent experiments) is listed as “inhibited”. In addition, the “Effect on PIEZO1-mediated Ca2+ response to shear stress” value in the assay with hPIEZO1 (100 pM monomerized peptide, 4 independent experiments) is “completely inhibited”.
